Assay results as given in patent publication US20240262845A1, “PYRIDINIUM SALTS, METHODS OF MAKING, AND METHODS OF USE” (UNIVERSITY OF WYOMING, priority 2023, published 2024).
Entries after “also recorded” stand apart in the source; their conditions may differ. Where a name gives a salt, the structure may show the parent alone.

Assays:
[1] = biological target: Exenatide (Heloderma suspectum, UniProt P26349); assay: Photochemical labeling of exenatide with pyridinium salt (General Procedure B, LC/MS); format: biochemical; details: trypsin digest
Method: General Procedure B: Photochemical Irradiation of Peptides and Proteins: To a 2 mL Pyrex LC/MS vial (Thermo model #03-391-39) were sequentially added solutions containing the desired biomolecule, glutathione (GSH), pyridinium salt, and ammonium acetate (NH4OAc). The resulting solution was diluted to a final volume of 500 μL and then sparged using nitrogen for a minimum of 30 minutes prior to irradiation. The actively sparging solution was then placed in an EvoluChem™ PhotoRedOx Box photoreactor that was equipped with a Kessil, PR160 427 nm LED Lamp and was then irradiated (100% lamp intensity) for the designated time at room temperature while maintaining active sparging. The resultant reaction mixture was then analyzed directly by LC/MS. […]
Labeling of Exenatide with Pyridinium Salt 2a (Exenatide-2a Conjugate). […] The resulting reaction mixture was directly analyzed by LC/MS using method A and was estimated to have proceeded in 70% conversion. […]
General Trypsin Digest Protocol B: For non-cystine bridged labeled proteins, a standard trypsin digest was modified as follows. […] The digested mixture was analyzed directly by LC/MS and MS/MS using method C.
Exenatide-2a Conjugate. […] The digested mixture was analyzed directly by LC-MS and MS/MS. […]

[2] = biological target: T1, chymotrypsinogen (Bos taurus, UniProt P00766); assay: Photochemical labeling of chymotrypsinogen with pyridinium salt (General Procedure B, LC/MS); format: biochemical, bovine; details: trypsin digest
T1 construct: α-Chymotrypsinogen A from bovine pancreas; purchased Sigma Aldrich; host or cells: bovine pancreas
Method: General Procedure B: Photochemical Irradiation of Peptides and Proteins: To a 2 mL Pyrex LC/MS vial (Thermo model #03-391-39) were sequentially added solutions containing the desired biomolecule, glutathione (GSH), pyridinium salt, and ammonium acetate (NH4OAc). The resulting solution was diluted to a final volume of 500 μL and then sparged using nitrogen for a minimum of 30 minutes prior to irradiation. The actively sparging solution was then placed in an EvoluChem™ PhotoRedOx Box photoreactor that was equipped with a Kessil, PR160 427 nm LED Lamp and was then irradiated (100% lamp intensity) for the designated time at room temperature while maintaining active sparging. The resultant reaction mixture was then analyzed directly by LC/MS. Analysis of labeling outcomes using LC/MS was performed either by extracted ion chromatogram intensities (method A) or by integrating the area under the peaks associated with peptide content (method B). These values were totaled, and estimated percentages were assigned according to relative intensities of peaks or ion counts.
Labeling of Chymotrypsinogen with pyridinium salt 2a (Chymotrypsinogen-2a Conjugate). […] The reaction mixture was directly analyzed by LC/MS using method A and was estimated to have proceeded with 90% conversion with a 20.7:8.3:1 mono:di:tri labeled ratio and 4% glutathionylation of all unlabeled and labeled protein content. […]

Exenatide, sequence (P26349 48-86 limits assumed): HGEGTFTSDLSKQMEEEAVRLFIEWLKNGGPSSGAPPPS

COC(=O)N(C)[n+]1c(C)cc(-c2ccc3cc(OC)ccc3c2)cc1C [pyridinium salt 2a, 1-((methoxycarbonyl)(methyl)amino)-4-(6-methoxynapthalen-2-yl)-2,6-dimethylpyridin-1-ium tetrafluoroborate]
Modified Trp [1]: Trp-025 | Modified Trp [2]: Trp-215; also recorded: Trp-237
